Assay results as given in ChEMBL document CHEMBL4507317, “Data for DCP probe BAY-899” (2021).

Assays:
[1] = biological target: Tyrosine-protein kinase ABL1 (Homo sapiens) (UniProt P00519); conditions: Compound concentration 1000.0 nM
[2] = biological target: Calcium/calmodulin-dependent protein kinase type II subunit beta (Homo sapiens) (UniProt Q13554); conditions: Compound concentration 1000.0 nM
[3] = biological target: Calcium/calmodulin-dependent protein kinase type II subunit gamma (Homo sapiens) (UniProt Q13555); conditions: Compound concentration 1000.0 nM
[4] = biological target: Cyclin-dependent kinase-like 3 (Homo sapiens) (UniProt Q8IVW4); conditions: Compound concentration 1000.0 nM
[5] = biological target: Citron Rho-interacting kinase (Homo sapiens) (UniProt O14578); conditions: Compound concentration 1000.0 nM
[6] = biological target: Casein kinase I isoform epsilon (Homo sapiens) (UniProt P49674); conditions: Compound concentration 1000.0 nM
[7] = biological target: Dual specificity tyrosine-phosphorylation-regulated kinase 1A (Homo sapiens) (UniProt Q13627); conditions: Compound concentration 1000.0 nM
[8] = biological target: Dual specificity tyrosine-phosphorylation-regulated kinase 2 (Homo sapiens) (UniProt Q92630); conditions: Compound concentration 1000.0 nM
[9] = system: Epidermal growth factor receptor (Homo sapiens), P00533 [T790M]; conditions: Compound concentration 1000.0 nM
[10] = biological target: Ephrin type-A receptor 1 (Homo sapiens) (UniProt P21709); conditions: Compound concentration 1000.0 nM
Sequence of Ephrin type-A receptor 1 (Homo sapiens) (P21709 whole entry): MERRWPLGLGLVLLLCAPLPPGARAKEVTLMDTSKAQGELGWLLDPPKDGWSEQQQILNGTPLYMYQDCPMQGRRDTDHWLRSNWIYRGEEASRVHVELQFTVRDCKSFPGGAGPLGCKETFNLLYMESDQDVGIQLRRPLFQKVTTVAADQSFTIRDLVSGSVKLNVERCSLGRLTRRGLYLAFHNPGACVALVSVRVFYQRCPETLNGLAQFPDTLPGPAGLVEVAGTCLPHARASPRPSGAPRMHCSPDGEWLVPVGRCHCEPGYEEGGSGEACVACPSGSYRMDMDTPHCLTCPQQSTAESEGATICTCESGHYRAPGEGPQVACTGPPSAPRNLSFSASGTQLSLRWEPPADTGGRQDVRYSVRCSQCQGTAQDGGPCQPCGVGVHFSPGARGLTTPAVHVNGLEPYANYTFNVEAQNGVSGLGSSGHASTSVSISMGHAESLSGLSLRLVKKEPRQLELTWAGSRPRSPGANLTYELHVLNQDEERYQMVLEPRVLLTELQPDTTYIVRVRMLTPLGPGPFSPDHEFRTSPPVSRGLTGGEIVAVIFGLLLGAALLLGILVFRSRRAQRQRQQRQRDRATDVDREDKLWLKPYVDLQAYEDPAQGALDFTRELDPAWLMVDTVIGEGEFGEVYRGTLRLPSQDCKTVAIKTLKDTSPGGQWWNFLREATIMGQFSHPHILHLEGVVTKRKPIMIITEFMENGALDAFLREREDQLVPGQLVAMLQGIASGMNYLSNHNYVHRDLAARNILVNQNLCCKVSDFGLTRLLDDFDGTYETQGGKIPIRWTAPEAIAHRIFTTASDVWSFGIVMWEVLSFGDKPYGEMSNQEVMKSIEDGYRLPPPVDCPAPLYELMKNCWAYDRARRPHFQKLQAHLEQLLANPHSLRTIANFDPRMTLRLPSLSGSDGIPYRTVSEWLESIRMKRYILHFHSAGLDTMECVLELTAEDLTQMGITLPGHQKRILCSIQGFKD

[11] = biological target: Ephrin type-B receptor 4 (Homo sapiens) (UniProt P54760); conditions: Compound concentration 1000.0 nM
[12] = biological target: Receptor tyrosine-protein kinase erbB-3 (Homo sapiens) (UniProt P21860); conditions: Compound concentration 1000.0 nM
[13] = system: Receptor-type tyrosine-protein kinase FLT3 (Homo sapiens), P36888 [D835Y]; conditions: Compound concentration 1000.0 nM
[14] = system: Receptor-type tyrosine-protein kinase FLT3 (Homo sapiens), P36888 [N841I]; conditions: Compound concentration 1000.0 nM
[15] = biological target: Inhibitor of nuclear factor kappa-B kinase subunit epsilon (Homo sapiens) (UniProt Q14164); conditions: Compound concentration 1000.0 nM
[16] = biological target: Tyrosine-protein kinase JAK1 (Homo sapiens) (UniProt P23458); conditions: Compound concentration 1000.0 nM
[17] = biological target: Dual specificity mitogen-activated protein kinase kinase 4 (Homo sapiens) (UniProt P45985); conditions: Compound concentration 1000.0 nM
[18] = system: Hepatocyte growth factor receptor (Homo sapiens), P08581 [Y1235D]; conditions: Compound concentration 1000.0 nM
[19] = biological target: Mitogen-activated protein kinase kinase kinase 9 (Homo sapiens) (UniProt P80192); conditions: Compound concentration 1000.0 nM
[20] = biological target: Serine/threonine-protein kinase 4 (Homo sapiens) (UniProt Q13043); conditions: Compound concentration 1000.0 nM
[21] = biological target: Mitogen-activated protein kinase 11 (Homo sapiens) (UniProt Q15759); conditions: Compound concentration 1000.0 nM
[22] = biological target: Serine/threonine-protein kinase PAK 4 (Homo sapiens) (UniProt O96013); conditions: Compound concentration 1000.0 nM
Sequence of Serine/threonine-protein kinase PAK 4 (Homo sapiens) (O96013 whole entry, looked up): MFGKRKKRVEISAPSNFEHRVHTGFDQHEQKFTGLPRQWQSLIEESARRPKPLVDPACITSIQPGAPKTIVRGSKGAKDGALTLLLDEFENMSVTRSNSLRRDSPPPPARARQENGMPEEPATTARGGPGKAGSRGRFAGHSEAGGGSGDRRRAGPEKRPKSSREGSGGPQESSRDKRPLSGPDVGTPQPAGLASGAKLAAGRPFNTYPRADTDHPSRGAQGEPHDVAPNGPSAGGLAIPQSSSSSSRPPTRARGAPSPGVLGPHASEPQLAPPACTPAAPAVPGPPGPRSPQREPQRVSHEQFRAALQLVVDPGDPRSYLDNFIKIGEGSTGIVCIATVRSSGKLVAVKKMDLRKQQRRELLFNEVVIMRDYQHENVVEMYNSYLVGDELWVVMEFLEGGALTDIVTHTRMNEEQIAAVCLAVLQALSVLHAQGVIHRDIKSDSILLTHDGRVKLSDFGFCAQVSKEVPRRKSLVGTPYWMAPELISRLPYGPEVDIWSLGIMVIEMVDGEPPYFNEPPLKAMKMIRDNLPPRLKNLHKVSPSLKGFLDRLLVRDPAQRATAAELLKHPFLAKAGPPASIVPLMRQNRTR

[23] = biological target: Calcium-dependent protein kinase 1 (Plasmodium falciparum) (UniProt P62344); conditions: Compound concentration 1000.0 nM
[24] = biological target: Phosphatidylinositol 4,5-bisphosphate 3-kinase catalytic subunit alpha isoform (Homo sapiens) (UniProt P42336); conditions: Compound concentration 1000.0 nM
[25] = biological target: Phosphatidylinositol 4,5-bisphosphate 3-kinase catalytic subunit gamma isoform (Homo sapiens) (UniProt P48736); conditions: Compound concentration 1000.0 nM
Sequence of Phosphatidylinositol 4,5-bisphosphate 3-kinase catalytic subunit gamma isoform (Homo sapiens) (P48736 whole entry, looked up, canonical isoform): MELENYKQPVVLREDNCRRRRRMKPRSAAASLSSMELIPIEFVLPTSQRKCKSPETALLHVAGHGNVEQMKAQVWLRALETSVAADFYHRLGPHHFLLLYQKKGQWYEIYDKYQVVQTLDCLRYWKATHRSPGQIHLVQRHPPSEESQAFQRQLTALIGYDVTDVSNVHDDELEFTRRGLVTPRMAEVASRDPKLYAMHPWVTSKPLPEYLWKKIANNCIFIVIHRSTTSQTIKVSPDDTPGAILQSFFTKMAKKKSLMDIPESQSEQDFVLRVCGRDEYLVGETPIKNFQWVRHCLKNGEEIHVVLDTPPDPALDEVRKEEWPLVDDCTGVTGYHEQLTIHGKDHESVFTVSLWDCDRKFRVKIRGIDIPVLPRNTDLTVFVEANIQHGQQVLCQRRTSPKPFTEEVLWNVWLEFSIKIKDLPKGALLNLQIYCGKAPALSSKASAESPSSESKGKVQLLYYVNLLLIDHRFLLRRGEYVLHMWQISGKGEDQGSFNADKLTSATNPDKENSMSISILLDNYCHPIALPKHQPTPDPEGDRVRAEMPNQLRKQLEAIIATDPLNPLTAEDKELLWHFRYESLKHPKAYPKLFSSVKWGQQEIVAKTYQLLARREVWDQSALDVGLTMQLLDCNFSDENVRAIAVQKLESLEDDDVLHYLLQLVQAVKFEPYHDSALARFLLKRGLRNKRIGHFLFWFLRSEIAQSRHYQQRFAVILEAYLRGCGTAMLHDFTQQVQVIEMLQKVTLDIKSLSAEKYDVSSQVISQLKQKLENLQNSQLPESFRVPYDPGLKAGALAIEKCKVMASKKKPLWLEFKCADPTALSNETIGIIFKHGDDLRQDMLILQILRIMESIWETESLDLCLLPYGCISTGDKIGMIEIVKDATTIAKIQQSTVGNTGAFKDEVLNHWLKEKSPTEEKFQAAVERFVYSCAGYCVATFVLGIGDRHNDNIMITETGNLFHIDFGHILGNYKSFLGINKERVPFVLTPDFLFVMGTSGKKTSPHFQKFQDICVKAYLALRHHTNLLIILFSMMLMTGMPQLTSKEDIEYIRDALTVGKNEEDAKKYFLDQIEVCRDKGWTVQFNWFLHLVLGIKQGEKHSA

[26] = biological target: Phosphatidylinositol 4-phosphate 5-kinase type-1 gamma (Homo sapiens) (UniProt O60331); conditions: Compound concentration 1000.0 nM
Sequence of Phosphatidylinositol 4-phosphate 5-kinase type-1 gamma (Homo sapiens) (O60331 whole entry): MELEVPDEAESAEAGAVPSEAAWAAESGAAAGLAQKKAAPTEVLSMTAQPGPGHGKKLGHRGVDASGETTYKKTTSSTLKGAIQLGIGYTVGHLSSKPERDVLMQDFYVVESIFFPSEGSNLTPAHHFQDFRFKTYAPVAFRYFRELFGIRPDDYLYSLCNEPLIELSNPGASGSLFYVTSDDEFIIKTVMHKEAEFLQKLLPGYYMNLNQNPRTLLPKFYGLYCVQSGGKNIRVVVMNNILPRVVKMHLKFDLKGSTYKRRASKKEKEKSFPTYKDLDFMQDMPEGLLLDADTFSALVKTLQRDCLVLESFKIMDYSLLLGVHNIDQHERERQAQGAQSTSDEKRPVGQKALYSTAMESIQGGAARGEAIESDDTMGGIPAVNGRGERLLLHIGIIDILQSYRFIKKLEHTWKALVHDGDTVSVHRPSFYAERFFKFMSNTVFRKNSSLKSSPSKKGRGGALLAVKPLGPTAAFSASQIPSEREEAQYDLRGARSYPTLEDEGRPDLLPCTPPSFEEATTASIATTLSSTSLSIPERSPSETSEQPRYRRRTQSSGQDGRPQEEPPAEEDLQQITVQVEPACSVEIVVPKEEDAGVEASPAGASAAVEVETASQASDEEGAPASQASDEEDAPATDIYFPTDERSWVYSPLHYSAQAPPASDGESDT

[27] = biological target: Phosphatidylinositol 5-phosphate 4-kinase type-2 beta (Homo sapiens) (UniProt P78356); conditions: Compound concentration 1000.0 nM
Sequence of Phosphatidylinositol 5-phosphate 4-kinase type-2 beta (Homo sapiens) (P78356 whole entry): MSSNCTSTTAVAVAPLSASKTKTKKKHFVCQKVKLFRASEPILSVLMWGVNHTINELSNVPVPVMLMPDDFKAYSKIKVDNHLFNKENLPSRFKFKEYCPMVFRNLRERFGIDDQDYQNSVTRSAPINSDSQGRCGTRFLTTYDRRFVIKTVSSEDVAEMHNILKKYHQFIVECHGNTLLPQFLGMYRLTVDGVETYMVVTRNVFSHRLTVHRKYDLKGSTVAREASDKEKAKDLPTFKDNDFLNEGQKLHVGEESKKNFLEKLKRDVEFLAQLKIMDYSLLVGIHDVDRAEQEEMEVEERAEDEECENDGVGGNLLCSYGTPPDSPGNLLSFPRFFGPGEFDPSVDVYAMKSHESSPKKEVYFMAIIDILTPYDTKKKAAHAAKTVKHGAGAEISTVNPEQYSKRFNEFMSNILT

[28] = biological target: Membrane-associated tyrosine- and threonine-specific cdc2-inhibitory kinase (Homo sapiens) (UniProt Q99640); conditions: Compound concentration 1000.0 nM
[29] = biological target: Protein kinase C iota type (Homo sapiens) (UniProt P41743); conditions: Compound concentration 1000.0 nM
[30] = biological target: RAF proto-oncogene serine/threonine-protein kinase (Homo sapiens) (UniProt P04049); conditions: Compound concentration 1000.0 nM
Sequence of RAF proto-oncogene serine/threonine-protein kinase (Homo sapiens) (P04049 whole entry): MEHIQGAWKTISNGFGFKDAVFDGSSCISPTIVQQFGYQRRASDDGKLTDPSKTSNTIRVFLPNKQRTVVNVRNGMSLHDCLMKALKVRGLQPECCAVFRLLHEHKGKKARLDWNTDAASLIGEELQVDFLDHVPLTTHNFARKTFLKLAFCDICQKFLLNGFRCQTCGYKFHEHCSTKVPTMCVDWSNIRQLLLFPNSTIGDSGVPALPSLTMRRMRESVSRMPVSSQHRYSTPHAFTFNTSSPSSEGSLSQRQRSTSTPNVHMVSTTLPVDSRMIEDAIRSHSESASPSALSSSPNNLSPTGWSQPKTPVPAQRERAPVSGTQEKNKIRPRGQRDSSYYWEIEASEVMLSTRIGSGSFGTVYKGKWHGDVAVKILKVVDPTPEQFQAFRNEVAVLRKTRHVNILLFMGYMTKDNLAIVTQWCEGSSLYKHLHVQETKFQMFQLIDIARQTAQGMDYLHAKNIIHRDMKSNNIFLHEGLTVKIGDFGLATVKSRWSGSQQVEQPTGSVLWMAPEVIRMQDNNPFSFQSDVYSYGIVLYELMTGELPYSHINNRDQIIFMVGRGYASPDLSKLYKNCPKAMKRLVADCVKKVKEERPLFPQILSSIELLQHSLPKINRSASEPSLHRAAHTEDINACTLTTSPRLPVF

[31] = biological target: Receptor-interacting serine/threonine-protein kinase 4 (Homo sapiens) (UniProt P57078); conditions: Compound concentration 1000.0 nM
[32] = biological target: Serine/threonine-protein kinase tousled-like 2 (Homo sapiens) (UniProt Q86UE8); conditions: Compound concentration 1000.0 nM
[33] = biological target: TRAF2 and NCK-interacting protein kinase (Homo sapiens) (UniProt Q9UKE5); conditions: Compound concentration 1000.0 nM
[34] = biological target: BDNF/NT-3 growth factors receptor (Homo sapiens) (UniProt Q16620); conditions: Compound concentration 1000.0 nM
[35] = biological target: Non-receptor tyrosine-protein kinase TYK2 (Homo sapiens) (UniProt P29597); conditions: Compound concentration 1000.0 nM
[36] = biological target: D(3) dopamine receptor (Homo sapiens) (UniProt P35462); conditions: Compound concentration 10.0 uM
[37] = biological target: T1, Muscarinic acetylcholine receptor M4 (Homo sapiens) (UniProt P08173); conditions: Compound concentration 10.0 uM
T1 sequence (whole entry): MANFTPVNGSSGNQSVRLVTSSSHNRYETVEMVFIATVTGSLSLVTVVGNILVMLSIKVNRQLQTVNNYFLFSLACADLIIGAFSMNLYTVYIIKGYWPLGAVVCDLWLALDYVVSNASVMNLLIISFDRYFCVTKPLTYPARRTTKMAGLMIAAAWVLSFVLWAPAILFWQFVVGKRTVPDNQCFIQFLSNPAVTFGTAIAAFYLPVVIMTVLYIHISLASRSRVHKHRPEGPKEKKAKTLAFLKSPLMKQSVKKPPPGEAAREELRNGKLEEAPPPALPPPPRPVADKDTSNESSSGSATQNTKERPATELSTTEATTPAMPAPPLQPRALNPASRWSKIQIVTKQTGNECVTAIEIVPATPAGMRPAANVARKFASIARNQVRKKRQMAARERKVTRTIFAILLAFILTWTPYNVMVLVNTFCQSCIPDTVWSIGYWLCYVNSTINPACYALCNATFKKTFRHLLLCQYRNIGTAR

[38] = biological target: Muscarinic acetylcholine receptor M5 (Homo sapiens) (UniProt P08912); conditions: Compound concentration 10.0 uM
Sequence of Muscarinic acetylcholine receptor M5 (Homo sapiens) (P08912 whole entry): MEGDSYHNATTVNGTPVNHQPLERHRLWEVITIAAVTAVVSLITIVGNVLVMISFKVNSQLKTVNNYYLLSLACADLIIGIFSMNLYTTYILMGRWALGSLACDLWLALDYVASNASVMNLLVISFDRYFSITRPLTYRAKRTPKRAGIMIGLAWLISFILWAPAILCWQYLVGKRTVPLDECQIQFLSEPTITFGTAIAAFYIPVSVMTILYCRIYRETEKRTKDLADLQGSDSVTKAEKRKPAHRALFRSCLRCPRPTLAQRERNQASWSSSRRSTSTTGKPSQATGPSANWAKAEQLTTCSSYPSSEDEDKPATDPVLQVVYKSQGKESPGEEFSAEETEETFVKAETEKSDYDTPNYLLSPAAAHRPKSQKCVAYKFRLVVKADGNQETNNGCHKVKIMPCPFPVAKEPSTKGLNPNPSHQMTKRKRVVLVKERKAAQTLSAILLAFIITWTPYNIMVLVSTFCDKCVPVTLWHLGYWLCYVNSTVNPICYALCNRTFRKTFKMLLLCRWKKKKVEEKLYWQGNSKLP

O=C(Nc1ccc(Oc2ccc(F)cc2)cc1)N1CCc2ncccc2[C@H]1c1ccc(F)cc1 [BAY-897]
inactive: residual activity [1] 100% | residual activity [2] 100% | residual activity [3] 96% | residual activity [4] 82% | residual activity [5] 91% | residual activity [6] 85% | residual activity [7] 95% | residual activity [8] 84% | residual activity [9] 87% | residual activity [10] 100% | residual activity [11] 100% | residual activity [12] 100% | residual activity [13] 99% | residual activity [14] 93% | residual activity [15] 89% | residual activity [16] 94% | residual activity [17] 86% | residual activity [18] 86% | residual activity [19] 100% | residual activity [20] 99% | residual activity [21] 100% | residual activity [22] 94% | residual activity [23] 96% | residual activity [24] 83% | residual activity [25] 87% | residual activity [26] 96% | residual activity [27] 97% | residual activity [28] 63% | residual activity [29] 100% | residual activity [30] 100% | residual activity [31] 84% | residual activity [32] 100% | residual activity [33] 100% | residual activity [34] 84% | residual activity [35] 95% | inhibition [36] -2.66% | inhibition [37] 9.29% | inhibition [38] -1.7%

O=C(Nc1cnc(Oc2ccc(F)cc2)nc1)N1CCc2ncccc2[C@@H]1c1ccc(F)cc1 [BAY-899]
inactive: residual activity [1] 94% | residual activity [2] 92% | residual activity [3] 80% | residual activity [4] 77% | residual activity [5] 88% | residual activity [6] 66% | residual activity [7] 100% | residual activity [8] 81% | residual activity [9] 91% | residual activity [10] 100% | residual activity [11] 100% | residual activity [12] 100% | residual activity [13] 100% | residual activity [14] 88% | residual activity [15] 98% | residual activity [16] 86% | residual activity [17] 100% | residual activity [18] 93% | residual activity [19] 92% | residual activity [20] 100% | residual activity [21] 84% | residual activity [22] 82% | residual activity [23] 95% | residual activity [24] 100% | residual activity [25] 85% | residual activity [26] 100% | residual activity [27] 100% | residual activity [28] 80% | residual activity [29] 98% | residual activity [30] 100% | residual activity [31] 100% | residual activity [32] 89% | residual activity [33] 100% | residual activity [34] 100% | residual activity [35] 97% | inhibition [36] -4.36% | inhibition [37] 22.8% | inhibition [38] 12%
